Test results: article PMC10041525, “New Dual Inhibitors of Bacterial Topoisomerases with Broad-Spectrum Antibacterial Activity and In Vivo Efficacy against Vancomycin-Intermediate Staphylococcus aureus” (Journal of Medicinal Chemistry, 2023)

Columns and labels:
[1] = test system: Chinese hamster ovary K1 cells; conditions: 150 µM
[2] = test system: Chinese hamster ovary K1 cells; assay: in vitro micronucleus test; conditions: with S9, 150 µM

Question: `c1ccc2c(c1)cc1ccc3cccc4ccc2c1c34` [Benzo[a]pyrene] was tested. Which “% Cytostasis” value [1] did it give?
Answer: 8.3%

Question: And the No. binucleate cells [2]?
Answer: 1702
